The values below come from PubChem BioAssay (NCI).

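Compound exposure: 48 hours, 5 concentrations, 96-well plates. The concentration for 50% growth inhibition is given as GI50. TGI: concentration producing complete growth inhibition.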

Holding throughout (assay): NCI-60 cell line screen, 48 h
Assay [1] relates to MDA-N.
Assay [2] relates to DLD-1 colon.
Assay [3] deals with DMS 114 small cell lung.
Assay [4] concerns DMS 273 small cell lung.
For assay [5], the system named is HOP-18 NSCLC.
In assay [6] the test system is KM20L2 colon.
Assay [7] has as its system LXFL 529 NSCLC.
The test system of assay [8] is XF 498 CNS.
In assay [9] the test system is RXF-631 renal.

Regarding `C=C1C(=O)O[C@@H]2C[C@@H](C)[C@@H]3[C@@H](OC4OC(COC(C)=O)C(O)C(O)C4O)CC(=O)[C@@]3(C)C[C@H]12` (stereo partly specified), the TGI in assay [1] came out at 3.51 µM.
As for `C=CCN=C1N=C(CC(=O)OCC)CS1`, the TGI in [2], in assay [3], in assay [4], in [5], in assay [6] and in assay [7] was more than 100 µM each time. In addition, the TGI in [8] is more than 100 µM.
Turning to `O=C(Nc1nccs1)c1cc(C2=CC=CC([N+](=O)[O-])C=C2)nc(=S)[nH]1` (stereo unspecified), the TGI in assay [3], in assay [4], in assay [5], in [6] and in assay [7] was more than 100 µM throughout.
Regarding `COc1cc2c(cc1OC)[C@@H](C(O)c1ccccc1)NCC2` (stereo partly specified), the TGI in assay [2], in assay [3], in assay [4], in assay [6], in [7] and in [9] was more than 100 µM each time. In [8], this compound came in with a TGI of more than 100 µM.
The compound `c1cncc(C(Nc2cccc3cccnc23)Nc2cccc3cccnc23)c1` displayed a TGI in assay [1] of more than 100 µM.
Same read-out and setting: the result for `CCc1oc2ccccc2c1C(=O)c1cc(Br)c(O)c(Br)c1` reads more than 100 µM.
As to `O=Cc1[nH]c2ccccc2c1Br`, the TGI in assay [2] is more than 100 µM; in [3] it was 44.7 µM; in assay [4], 36.3 µM; in [5] it was 83.4 µM; in assay [6], 41.5 µM; in [7] it was 60.6 µM. In addition, the TGI was 44.1 µM in assay [9] and 63.7 µM in assay [8].
Compound `CNC1NC(=O)c2ccccc2N1Cc1ccc(F)cc1` (stereo unspecified) yielded a TGI in [1] of more than 100 µM.
Regarding `COc1ccc(/C=C2\CNC/C(=C\c3ccc(OC)cc3)C2=O)cc1`, the TGI in [2] was more than 100 µM; in assay [3], more than 100 µM; in [4], more than 100 µM; in assay [5], more than 100 µM; in [6], 89.6 µM; in assay [7] it was more than 100 µM. This compound returned a TGI in assay [8] of more than 100 µM.
`COC[C@H]1OC(=O)c2coc3c2[C@@]1(C)C1=C(C3=O)[C@@H]2CCC(=O)[C@@]2(C)C[C@H]1OC(C)=O` showed a TGI in [1] of more than 100 µM.
Consider `Cc1ccc2c(=O)[nH]sc2c1`, for which the TGI in [1] came to 27 µM.
On to `COc1ccc(C=NC23CC4CC(CC(C4)C2)C3)cc1`, for which the values for the TGI in [3], in [4] and in assay [6] were more than 100 µM, more than 10 µM and more than 100 µM, respectively.
`Cn1c(=O)c2[nH]c(COCc3nc4c([nH]3)c(=O)n(C)c(=O)n4C)nc2n(C)c1=O`: the TGI in assay [1] was more than 100 µM.
On to `O=C(c1ccc(NCN2C(=O)CCC2=O)cc1)c1ccc(NCN2C(=O)CCC2=O)cc1`, for which the TGI in assay [2], in assay [4], in [6], in [7], in [9] and in [8] was more than 100 µM in each case.
In [1], `NC1CCC[C@@H](O)[C@H]1O` (stereo partly specified) yielded a TGI of more than 100 µM.
Regarding `O=C(O)c1ccc([N+](=O)[O-])c2c(=O)c3ccccc3[nH]c12`, the TGI in assay [2], in assay [3], in assay [4], in assay [5], in assay [6] and in assay [7] was more than 100 µM throughout. This compound returned a TGI in assay [9] of more than 100 µM.
In assay [1], `COc1cc2c(OC)c(c1)CCCC1=CC(=O)C=C(CCC2)C1=O` returned a TGI of 30.2 µM.
Consider `CC(=O)OC[C@@H]1[C@H]2CC(=O)O[C@H]2C[C@H]1OC(C)=O`, for which the TGI in assay [2], in assay [3], in [4], in assay [5], in [6] and in [7] was more than 100 µM each time.
For `CC(C)(C)C(=O)C(c1ccc(-c2cscn2)cc1)c1ccc(-c2cscn2)cc1`, the TGI in assay [2], in assay [4], in assay [5], in [6], in assay [7] and in assay [9] was more than 100 µM each time. For the same compound, the TGI in assay [8] was determined as 80.5 µM.
For the compound `CCOC(=O)NC(=O)c1cn(CCCOC(=O)CCCCCCCCC(=O)OCCCn2cc(C(=O)NC(=O)OCC)c(=O)[nH]c2=O)c(=O)[nH]c1=O`, the TGI was 53.1 µM in [2]; 39.2 µM in assay [3]; 66.6 µM in assay [4]; 56.4 µM in [5]; more than 100 µM in assay [6]; 79.8 µM in assay [7]. Also, the TGI in [8] amounted to 72.4 µM.
`NC(=O)C1=C(c2ccccc2)c2ccccc2C1=O`: the TGI in assay [1] came to 38.1 µM.
Regarding `COC1CC(OS(=O)(=O)c2ccc(C)cc2)C(OS(=O)(=O)c2ccc(C)cc2)C(COS(=O)(=O)c2ccc(C)cc2)O1` (stereo unspecified), the TGI in assay [2] was found to be 22.7 µM; in assay [3], 15.1 µM; in assay [4], 18.6 µM; in assay [5], 8.36 µM; in [6] it was 30.9 µM; in assay [7], 18.7 µM.
Turning to `CN(C)c1ccc(/C=C2\N=C(c3ccc(N)cc3)OC2=O)cc1`, the TGI in assay [2], in assay [3], in assay [4], in [5], in assay [6] and in [7] was more than 100 µM in each case. The TGI in [9] and in [8] was more than 100 µM each time.
Turning to `Cc1cc2c(c(C#N)c1C)NC(=O)C(CC(=O)O)C2=O` (stereo unspecified), the TGI in assay [2], in assay [3], in assay [4], in assay [5], in assay [6] and in assay [7] was more than 100 µM in each case. Moreover, the TGI in assay [9] and in assay [8] was more than 100 µM throughout.
Turning to `COc1ccc2nc(NC(=O)C(=O)CC(=O)c3ccc(Cl)cc3)sc2c1`, the TGI in [2], in [3], in assay [4], in assay [5], in assay [6] and in assay [7] was more than 100 µM in each case. In [8], this compound gave a TGI of more than 100 µM.
For `CCCCC(=O)[O-].N.N.N.N.N.[Co+3].[O-][Cl+3]([O-])([O-])[O-]`, the GI50 in assay [2], in assay [4], in assay [6] and in [7] was more than 100 µM throughout. Further, the TGI in [2], in assay [4], in assay [6] and in assay [7] was more than 100 µM each time.
Regarding `CC(=O)Oc1cccc2c1C(=O)C(Br)(Br)CCC2`, the TGI in assay [2] stood at 36.2 µM; in [3], 7.79 µM; in [4], 14.9 µM; in assay [5], 32.2 µM; in assay [6] it was 21.7 µM; in assay [7], 18.7 µM. The TGI in assay [1] came to 12.8 µM; in assay [9], 35.5 µM; in [8] it was 24.1 µM.
As for `CCOC(=O)C#Cc1ccc(C#CC(=O)OCC)cc1`, in [1], the TGI turned out to be 4.87 µM.
Turning to `Cc1c(C(=O)CC(=O)C(=O)Nc2cccc(C(F)(F)F)c2)[n+](=O)c2ccccc2n1[O-]`, the TGI worked out at 4.43 µM in [3]; 10.3 µM in assay [4]; 25.5 µM in [5]; 11.8 µM in assay [6]; 14.1 µM in assay [7]; 11 µM in assay [9].
Regarding `N#CC1(c2nc3ccccc3o2)C(=O)C(=O)N(c2ccc(Cl)c(Cl)c2)C(=O)C1=O`, the TGI in [2], in assay [4], in [5], in assay [6], in assay [7] and in assay [8] was more than 100 µM in each case.
With `O[C@]12CCCC[C@H]1CCC2`, the TGI in assay [3], in [4], in [7], in assay [9] and in assay [8] was more than 100 µM in each case.
With `CC[O-].CC[O-].O=Nc1ccc2cc([O-])ccc2c1.O=Nc1ccc2cc([O-])ccc2c1.[Ti+4]`, the GI50 in assay [2] was 2.45 µM; in [3], 1.95 µM; in assay [4], 1.68 µM; in assay [5], 1.49 µM; in [6], 2.83 µM. The TGI in assay [2] was more than 21.9 µM; in assay [3], 6.06 µM; in assay [4], 3.11 µM; in assay [5], 2.82 µM; in assay [6] it was 8.22 µM.
For `CC(=O)O[C@@H]1CC(C)C2CC2C2=C(C(O)OC2O)[C@@H]1C(C)CCC=C(C)C` (stereo partly specified), the TGI in [2] was 73.3 µM; in [3] it was 50.4 µM; in [4], 45.3 µM; in assay [6], 39.9 µM; in assay [7], 81.9 µM; in assay [8], 49.9 µM.
Consider `Cn1c2ccc([N+](=O)[O-])cc2c(=O)c2c(O)cc(O)cc21`, for which the TGI in [1] is more than 100 µM.
